The results in this text go back to PubChem BioAssay (NCI).

Among the test systems are RPMI-8226 leukemia; A549 NSCLC; OVCAR-5 ovarian; UACC-257 melanoma; MDA-MB-231 breast; NCI/ADR-RES ovarian; CAKI-1 renal; SNB-75 CNS; SK-OV-3 ovarian.
Common to all, as to assay: NCI tumour cell line growth inhibition, 48 h

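Step 1: Grow cells in 96-well plates. Step 2: Expose to compound for 48 hours at 5 concentrations. Step 3: Interpolate endpoints linearly; if unreached, use highest concentration. TGI is the concentration that stops growth completely.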

For `CCCCC[C@H](O)[C@H](C)C=C1SCCCS1`, the TGI in the assay with RPMI-8226 leukemia, with A549 NSCLC, in the assay on OVCAR-5 ovarian, in the assay on UACC-257 melanoma, with MDA-MB-231 breast and in the assay on NCI/ADR-RES ovarian was greater than 100 µM in each case. Further, the TGI in the assay with CAKI-1 renal, in the assay with SNB-75 CNS and with SK-OV-3 ovarian was greater than 100 µM throughout.
For the compound `CN(C)c1ccc(-c2nc(-c3cc4c(ccc5ccccc54)oc3=O)cs2)cc1`, the TGI in the assay on RPMI-8226 leukemia, in the assay with A549 NSCLC, in the assay with OVCAR-5 ovarian, in the assay with UACC-257 melanoma, in the assay on MDA-MB-231 breast and in the assay with NCI/ADR-RES ovarian was greater than 100 µM in each case. Moreover, the TGI with CAKI-1 renal, in the assay with SNB-75 CNS and with SK-OV-3 ovarian was greater than 100 µM throughout.
Consider `CCOC(=O)c1c2c(n(C)c1-c1ccccc1)C(=O)C(C)=CC2=O`, for which the TGI is 4.81 µM in the assay on RPMI-8226 leukemia; 32.9 µM with A549 NSCLC; 19.6 µM in the assay on OVCAR-5 ovarian; 7.03 µM in the assay on UACC-257 melanoma; 4.62 µM in the assay with MDA-MB-231 breast; 23.3 µM in the assay on NCI/ADR-RES ovarian. In addition, the TGI in the assay on CAKI-1 renal turned out to be 28.1 µM; in the assay on SNB-75 CNS it was 28.8 µM; with SK-OV-3 ovarian, 30.4 µM.
In the case of `O=[N+]([O-])c1ccc2nc3ccc([N+](=O)[O-])cn3c2c1`, the TGI was greater than 100 µM in the assay on A549 NSCLC; greater than 100 µM with OVCAR-5 ovarian; greater than 100 µM in the assay with UACC-257 melanoma; greater than 100 µM in the assay with MDA-MB-231 breast; greater than 100 µM in the assay on NCI/ADR-RES ovarian; 89.2 µM with CAKI-1 renal. The TGI in the assay on SNB-75 CNS and in the assay on SK-OV-3 ovarian was greater than 100 µM in each case.
For the compound `O=C(C[C@@H]1NCCC[C@H]1O)Cn1cnc2cc(Br)c(Cl)cc2c1=O`, the TGI with RPMI-8226 leukemia stood at 0.128 µM; in the assay with A549 NSCLC, 0.143 µM; with OVCAR-5 ovarian it was 0.0883 µM; with MDA-MB-231 breast, 0.285 µM; with NCI/ADR-RES ovarian it was 0.603 µM; in the assay on CAKI-1 renal, 0.313 µM. The TGI with SNB-75 CNS is 0.338 µM; in the assay on SK-OV-3 ovarian it was 0.813 µM.
As to `CC1(C)CC(=O)C(/C=N/c2nc(-c3ccc(Br)cc3)cs2)=C(O)C1`, the TGI was greater than 100 µM in the assay on A549 NSCLC; greater than 100 µM in the assay with OVCAR-5 ovarian; 38.3 µM in the assay with UACC-257 melanoma; greater than 100 µM in the assay with MDA-MB-231 breast; greater than 100 µM in the assay with NCI/ADR-RES ovarian; 63.3 µM in the assay on CAKI-1 renal. Also, the TGI with SNB-75 CNS is 72.8 µM; in the assay with SK-OV-3 ovarian, greater than 100 µM.
Turning to `C#CC(C)(C)Oc1cc(OC)c2c(=O)c3ccccc3n(C)c2c1`, the TGI in the assay with RPMI-8226 leukemia was 25 µM; in the assay on A549 NSCLC, 74.1 µM; with OVCAR-5 ovarian, 98.3 µM; in the assay with UACC-257 melanoma it was 26.4 µM; in the assay on MDA-MB-231 breast, 56.1 µM; in the assay with NCI/ADR-RES ovarian, 83.4 µM. For the same compound, the TGI in the assay with SNB-75 CNS was 70.1 µM; with SK-OV-3 ovarian it was 54.9 µM.
Regarding `Cc1cccc(NC(=O)CC(=O)N2N=C(N3c4ccccc4Sc4ccccc43)CC2c2ccccc2)c1` (stereo not given), the TGI with RPMI-8226 leukemia, in the assay on A549 NSCLC, with OVCAR-5 ovarian, in the assay on UACC-257 melanoma, in the assay on MDA-MB-231 breast and in the assay with NCI/ADR-RES ovarian was greater than 100 µM in each case. The TGI in the assay with SNB-75 CNS and in the assay with SK-OV-3 ovarian was greater than 100 µM throughout.
As for `COc1cc(S(=O)(=O)Nc2nc(-c3ccc(N4C(=O)/C(=C/c5ccccc5)N=C4c4ccccc4)cc3)cs2)ccc1Cl`, the TGI with A549 NSCLC is greater than 100 µM; with OVCAR-5 ovarian it was greater than 100 µM; in the assay with UACC-257 melanoma, greater than 100 µM; with MDA-MB-231 breast, 70.1 µM; in the assay on NCI/ADR-RES ovarian, greater than 100 µM; in the assay on CAKI-1 renal it was greater than 100 µM. The TGI with SNB-75 CNS and in the assay on SK-OV-3 ovarian was greater than 100 µM each time.
In the case of `O=C1CCC2(CC1)Cc1ccccc1C2O` (stereo not given), the TGI in the assay on A549 NSCLC, in the assay with OVCAR-5 ovarian, with UACC-257 melanoma, with MDA-MB-231 breast, in the assay on NCI/ADR-RES ovarian and with CAKI-1 renal was greater than 100 µM each time. For the same compound, the TGI in the assay on SNB-75 CNS and with SK-OV-3 ovarian was greater than 100 µM throughout.
Turning to `CC1=NN(c2nc(N)nc(/C(C#N)=C/c3ccncc3)n2)C(C)(C)C1`, the TGI in the assay with RPMI-8226 leukemia, in the assay on UACC-257 melanoma, in the assay with MDA-MB-231 breast, in the assay with NCI/ADR-RES ovarian, in the assay on CAKI-1 renal and in the assay on SNB-75 CNS was greater than 100 µM throughout. Besides, the TGI with SK-OV-3 ovarian is greater than 100 µM.
Take `O=c1oc2ccccc2cc1-c1nc2ccc([N+](=O)[O-])cc2o1`: the TGI in the assay on RPMI-8226 leukemia, in the assay on A549 NSCLC, in the assay with UACC-257 melanoma, with MDA-MB-231 breast, in the assay with NCI/ADR-RES ovarian and in the assay on CAKI-1 renal was greater than 100 µM throughout. Besides, the TGI in the assay with SNB-75 CNS and in the assay with SK-OV-3 ovarian was greater than 100 µM each time.
On to `O=c1c(Cc2ccc(Cl)cc2)nnc2sc(-c3ccc([N+](=O)[O-])cc3)nn12`, for which the TGI with RPMI-8226 leukemia is 89.9 µM; in the assay on A549 NSCLC it was greater than 100 µM; with OVCAR-5 ovarian, 88.1 µM; in the assay on UACC-257 melanoma, 39.5 µM; in the assay on MDA-MB-231 breast, 66.3 µM; with NCI/ADR-RES ovarian, greater than 100 µM. Further, the TGI in the assay with CAKI-1 renal and in the assay with SK-OV-3 ovarian was greater than 100 µM in each case.
Consider `c1ccc2c3c(ccc2c1)CSCc1ccc2ccccc2c1-3`, for which the TGI with RPMI-8226 leukemia, in the assay with A549 NSCLC, with OVCAR-5 ovarian, with UACC-257 melanoma, in the assay on MDA-MB-231 breast and in the assay with NCI/ADR-RES ovarian was greater than 100 µM each time. Besides, the TGI with CAKI-1 renal and in the assay with SNB-75 CNS was greater than 100 µM in each case.
`COc1cc(C2SCC(=O)N2NC(=O)c2ccc(NC(C)=O)cc2)cc(OC)c1OC` (stereo not given): the TGI in the assay with RPMI-8226 leukemia, in the assay on A549 NSCLC, in the assay with OVCAR-5 ovarian, in the assay with UACC-257 melanoma, in the assay on MDA-MB-231 breast and in the assay with NCI/ADR-RES ovarian was greater than 100 µM throughout. Further, the TGI in the assay with SNB-75 CNS and in the assay with SK-OV-3 ovarian was greater than 100 µM each time.
`Cc1ccc(-c2cc(-c3ccc(Cl)cc3)nc(/N=C3\C(=O)N(CN4CCCCC4)c4ccc(Cl)cc43)n2)cc1`: the TGI with A549 NSCLC is 57.2 µM; in the assay with OVCAR-5 ovarian it was greater than 100 µM; in the assay on UACC-257 melanoma, 71.1 µM; in the assay with MDA-MB-231 breast, greater than 100 µM; in the assay on NCI/ADR-RES ovarian, 62.4 µM; in the assay on CAKI-1 renal, 64.7 µM. Further, the TGI in the assay with SNB-75 CNS and with SK-OV-3 ovarian was greater than 100 µM throughout.
